How the values were obtained:
Experiment in all cases: KINOMEscan
DAPK2 = DAPK2 (Homo sapiens, UniProt Q9UIK4); settings: read-out: Percent Control
Experimental: (§1) The kinase engagement assay (KINOMEscan®) was performed by DiscoverX assessing binding abilities toward a set of kinases.

NDR2 = NDR2 (Homo sapiens, UniProt Q9Y2H1); settings: read-out: Percent Control
Experimental: as §1

CAMK2B = CAMK2B (Homo sapiens, UniProt Q13554); settings: read-out: Percent Control
Experimental: as §1

TTK = TTK (Homo sapiens, UniProt P33981); settings: read-out: Percent Control
Experimental: as §1

PKAC-beta = PKAC-beta (Homo sapiens, UniProt P22694); settings: read-out: Percent Control
Experimental: as §1

MRCKB = MRCKB (Homo sapiens, UniProt Q9Y5S2); settings: read-out: Percent Control
Experimental: as §1

TRKB = TRKB (Homo sapiens, UniProt Q16620); settings: read-out: Percent Control
Sequence of TRKB (Q16620 32-822): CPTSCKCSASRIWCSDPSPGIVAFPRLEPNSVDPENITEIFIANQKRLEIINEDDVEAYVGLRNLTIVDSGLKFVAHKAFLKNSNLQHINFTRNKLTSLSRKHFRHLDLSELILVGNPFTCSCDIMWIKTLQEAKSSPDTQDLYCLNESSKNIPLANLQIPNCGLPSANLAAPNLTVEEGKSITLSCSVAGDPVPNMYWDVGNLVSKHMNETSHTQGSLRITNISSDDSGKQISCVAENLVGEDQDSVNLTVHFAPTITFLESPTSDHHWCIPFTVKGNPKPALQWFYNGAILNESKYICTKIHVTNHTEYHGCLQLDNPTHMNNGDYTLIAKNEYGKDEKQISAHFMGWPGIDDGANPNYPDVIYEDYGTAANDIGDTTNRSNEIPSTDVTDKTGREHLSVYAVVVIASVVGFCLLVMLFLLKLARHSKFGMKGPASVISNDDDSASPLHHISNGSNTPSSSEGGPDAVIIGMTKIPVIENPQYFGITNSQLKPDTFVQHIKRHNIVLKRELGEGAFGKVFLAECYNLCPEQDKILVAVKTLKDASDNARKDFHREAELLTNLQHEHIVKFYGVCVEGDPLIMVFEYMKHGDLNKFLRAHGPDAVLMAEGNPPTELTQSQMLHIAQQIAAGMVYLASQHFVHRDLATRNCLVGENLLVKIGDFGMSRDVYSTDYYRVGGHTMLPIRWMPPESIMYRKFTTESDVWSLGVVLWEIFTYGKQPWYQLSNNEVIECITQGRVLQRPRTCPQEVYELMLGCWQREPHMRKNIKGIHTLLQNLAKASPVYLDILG
Experimental: as §1

FGFR4 = FGFR4 (Homo sapiens, UniProt P22455); settings: read-out: Percent Control
Experimental: as §1

ACVRL1 = ACVRL1 (Homo sapiens, UniProt P37023); settings: read-out: Percent Control
Sequence of ACVRL1 (P37023 22-503): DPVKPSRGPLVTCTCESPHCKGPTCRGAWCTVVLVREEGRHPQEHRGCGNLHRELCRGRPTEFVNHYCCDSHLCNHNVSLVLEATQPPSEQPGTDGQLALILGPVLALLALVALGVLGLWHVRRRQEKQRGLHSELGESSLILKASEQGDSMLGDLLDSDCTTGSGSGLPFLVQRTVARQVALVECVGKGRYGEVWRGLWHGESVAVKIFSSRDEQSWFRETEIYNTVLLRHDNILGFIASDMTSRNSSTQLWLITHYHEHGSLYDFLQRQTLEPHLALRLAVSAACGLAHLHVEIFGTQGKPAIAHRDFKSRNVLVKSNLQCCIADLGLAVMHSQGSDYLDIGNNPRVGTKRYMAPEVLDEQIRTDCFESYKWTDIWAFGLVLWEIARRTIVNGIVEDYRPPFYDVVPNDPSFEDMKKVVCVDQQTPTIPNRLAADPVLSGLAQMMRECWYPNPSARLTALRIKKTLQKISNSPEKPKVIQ
Experimental: as §1

LIMK2 = LIMK2 (Homo sapiens, UniProt P53671); settings: read-out: Percent Control
Experimental: as §1

YANK3 = YANK3 (Homo sapiens, UniProt Q86UX6); settings: read-out: Percent Control
Sequence of YANK3 (Q86UX6 whole entry): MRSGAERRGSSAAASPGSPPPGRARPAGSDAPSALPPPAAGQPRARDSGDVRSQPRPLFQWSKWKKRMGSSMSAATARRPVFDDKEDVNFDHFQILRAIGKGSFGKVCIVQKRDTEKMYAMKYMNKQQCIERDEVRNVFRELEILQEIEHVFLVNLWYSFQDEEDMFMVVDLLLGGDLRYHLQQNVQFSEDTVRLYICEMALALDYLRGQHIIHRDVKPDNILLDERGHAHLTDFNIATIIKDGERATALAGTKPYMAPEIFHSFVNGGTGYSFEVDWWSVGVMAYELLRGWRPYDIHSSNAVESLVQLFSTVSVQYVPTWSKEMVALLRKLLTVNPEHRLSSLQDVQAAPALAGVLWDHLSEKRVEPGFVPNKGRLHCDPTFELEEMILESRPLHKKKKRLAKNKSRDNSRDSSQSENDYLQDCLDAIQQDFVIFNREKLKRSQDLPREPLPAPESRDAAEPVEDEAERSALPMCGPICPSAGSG
Experimental: as §1

TGFBR2 = TGFBR2 (Homo sapiens, UniProt P37173); settings: read-out: Percent Control
Experimental: as §1

[1] = biological target: ABL1(F317L)-nonphosphorylated (Homo sapiens, UniProt P00519, F317L); settings: read-out: Percent Control
Experimental: as §1

CSNK1G2 = CSNK1G2 (Homo sapiens, UniProt P78368); settings: read-out: Percent Control
Experimental: as §1

LRRK2 = LRRK2 (Homo sapiens, UniProt Q5S007); settings: read-out: Percent Control
Experimental: as §1

ULK2 = ULK2 (Homo sapiens, UniProt Q8IYT8); settings: read-out: Percent Control
Sequence of ULK2 (Q8IYT8 whole entry): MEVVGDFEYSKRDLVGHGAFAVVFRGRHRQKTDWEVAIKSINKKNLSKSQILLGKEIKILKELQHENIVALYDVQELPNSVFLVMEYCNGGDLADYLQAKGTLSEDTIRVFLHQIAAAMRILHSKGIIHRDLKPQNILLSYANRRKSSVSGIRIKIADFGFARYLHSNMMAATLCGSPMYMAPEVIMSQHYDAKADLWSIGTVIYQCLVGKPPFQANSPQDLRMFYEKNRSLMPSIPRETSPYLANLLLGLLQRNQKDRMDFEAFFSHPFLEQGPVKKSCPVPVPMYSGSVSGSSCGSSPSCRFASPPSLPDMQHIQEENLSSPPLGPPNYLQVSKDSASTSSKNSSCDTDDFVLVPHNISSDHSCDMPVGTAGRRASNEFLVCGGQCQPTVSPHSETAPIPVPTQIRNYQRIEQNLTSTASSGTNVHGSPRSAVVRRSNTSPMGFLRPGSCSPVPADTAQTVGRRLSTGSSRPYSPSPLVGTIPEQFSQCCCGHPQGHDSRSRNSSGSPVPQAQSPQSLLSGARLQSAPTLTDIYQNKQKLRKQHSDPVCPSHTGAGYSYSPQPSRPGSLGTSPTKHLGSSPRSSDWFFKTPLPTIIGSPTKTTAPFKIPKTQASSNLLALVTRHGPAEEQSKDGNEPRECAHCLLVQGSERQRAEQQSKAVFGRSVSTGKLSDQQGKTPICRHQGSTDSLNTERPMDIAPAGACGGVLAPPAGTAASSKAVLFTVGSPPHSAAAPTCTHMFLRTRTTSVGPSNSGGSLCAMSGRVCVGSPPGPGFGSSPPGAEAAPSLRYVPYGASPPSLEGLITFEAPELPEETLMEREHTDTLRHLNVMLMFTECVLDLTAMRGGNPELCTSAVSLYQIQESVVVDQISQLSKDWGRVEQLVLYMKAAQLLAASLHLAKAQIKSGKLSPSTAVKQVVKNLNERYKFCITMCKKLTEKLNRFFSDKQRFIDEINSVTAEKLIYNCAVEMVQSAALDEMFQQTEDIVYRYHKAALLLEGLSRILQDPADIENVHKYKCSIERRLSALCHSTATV
Experimental: as §1

ERK2 = ERK2 (Homo sapiens, UniProt P28482); settings: read-out: Percent Control
Experimental: as §1

[2] = biological target: ABL1(T315I)-nonphosphorylated (Homo sapiens, UniProt P00519, T315I); settings: read-out: Percent Control
Experimental: as §1

SRPK1 = SRPK1 (Homo sapiens, UniProt Q96SB4); settings: read-out: Percent Control
Experimental: as §1

CDK5 = CDK5 (Homo sapiens, UniProt Q00535); settings: read-out: Percent Control
Experimental: as §1

EPHA7 = EPHA7 (Homo sapiens, UniProt Q15375); settings: read-out: Percent Control
Sequence of EPHA7 (Q15375 28-998): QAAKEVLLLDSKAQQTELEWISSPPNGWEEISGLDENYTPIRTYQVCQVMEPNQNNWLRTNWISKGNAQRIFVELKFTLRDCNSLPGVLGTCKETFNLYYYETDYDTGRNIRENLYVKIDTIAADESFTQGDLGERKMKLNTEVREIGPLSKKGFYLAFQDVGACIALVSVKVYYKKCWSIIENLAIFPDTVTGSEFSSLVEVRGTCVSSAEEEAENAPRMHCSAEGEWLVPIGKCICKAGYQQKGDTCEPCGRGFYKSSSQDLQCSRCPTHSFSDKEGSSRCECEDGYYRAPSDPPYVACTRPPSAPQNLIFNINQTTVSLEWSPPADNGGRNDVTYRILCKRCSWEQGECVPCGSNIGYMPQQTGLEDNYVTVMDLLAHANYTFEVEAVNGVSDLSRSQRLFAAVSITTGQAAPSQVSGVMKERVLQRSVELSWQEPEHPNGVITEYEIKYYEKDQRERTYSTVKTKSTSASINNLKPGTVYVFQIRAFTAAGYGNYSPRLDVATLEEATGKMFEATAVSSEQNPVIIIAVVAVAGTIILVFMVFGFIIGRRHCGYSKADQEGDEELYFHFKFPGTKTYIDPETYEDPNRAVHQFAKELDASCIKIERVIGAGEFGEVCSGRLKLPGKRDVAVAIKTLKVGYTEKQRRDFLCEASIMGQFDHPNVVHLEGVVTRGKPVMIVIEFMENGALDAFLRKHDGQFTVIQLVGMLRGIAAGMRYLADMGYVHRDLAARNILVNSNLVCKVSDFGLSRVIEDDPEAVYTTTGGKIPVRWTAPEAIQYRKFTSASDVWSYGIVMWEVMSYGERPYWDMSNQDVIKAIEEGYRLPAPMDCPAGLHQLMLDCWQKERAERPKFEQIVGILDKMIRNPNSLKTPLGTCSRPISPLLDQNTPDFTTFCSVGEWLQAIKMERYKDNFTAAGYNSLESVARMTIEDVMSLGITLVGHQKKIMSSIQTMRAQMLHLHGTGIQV
Experimental: as §1

INSR = INSR (Homo sapiens, UniProt P06213); settings: read-out: Percent Control
Experimental: as §1

YSK4 = YSK4 (Homo sapiens, UniProt Q56UN5); settings: read-out: Percent Control
Experimental: as §1

ABL2 = ABL2 (Homo sapiens, UniProt P42684); settings: read-out: Percent Control
Experimental: as §1

PIK3CA(H1047Y) = PIK3CA(H1047Y) (Homo sapiens, UniProt P42336, H1047Y); settings: read-out: Percent Control
Experimental: as §1

[3] = biological target: RPS6KA5(Kin.Dom.1-N-terminal) (Homo sapiens, UniProt O75582); settings: read-out: Percent Control
Experimental: as §1

FLT3(ITD, D835V) = settings: 10 μM
Experimental: as §1

[4] = biological target: RSK4(Kin.Dom.1-N-terminal) (Homo sapiens, UniProt Q9UK32); settings: read-out: Percent Control
Experimental: as §1

SRMS = SRMS (Homo sapiens, UniProt Q9H3Y6); settings: read-out: Percent Control
Experimental: as §1

[5] = biological target: ABL1(H396P)-nonphosphorylated (Homo sapiens, UniProt P00519, H396P); settings: read-out: Percent Control
Experimental: as §1

EIF2AK1 = EIF2AK1 (Homo sapiens, UniProt Q9BQI3); settings: read-out: Percent Control
Sequence of EIF2AK1 (Q9BQI3 whole entry): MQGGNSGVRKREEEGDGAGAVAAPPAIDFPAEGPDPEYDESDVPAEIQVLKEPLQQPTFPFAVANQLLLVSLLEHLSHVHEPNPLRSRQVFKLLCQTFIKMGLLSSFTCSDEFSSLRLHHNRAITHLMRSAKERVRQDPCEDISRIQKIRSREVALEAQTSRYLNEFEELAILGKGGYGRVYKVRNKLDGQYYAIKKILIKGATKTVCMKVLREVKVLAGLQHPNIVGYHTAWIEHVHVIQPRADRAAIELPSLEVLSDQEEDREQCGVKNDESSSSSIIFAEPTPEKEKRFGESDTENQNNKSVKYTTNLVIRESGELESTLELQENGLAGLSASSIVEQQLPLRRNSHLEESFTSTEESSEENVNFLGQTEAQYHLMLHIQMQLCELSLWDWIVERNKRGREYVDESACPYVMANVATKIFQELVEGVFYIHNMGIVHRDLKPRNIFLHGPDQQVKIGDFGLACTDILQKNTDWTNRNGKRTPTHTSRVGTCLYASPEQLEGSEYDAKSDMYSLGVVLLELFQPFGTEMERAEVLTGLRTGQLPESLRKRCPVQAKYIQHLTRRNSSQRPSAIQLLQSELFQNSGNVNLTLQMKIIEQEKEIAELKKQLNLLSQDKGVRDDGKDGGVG
Experimental: as §1

LOK = LOK (Homo sapiens, UniProt O94804); settings: read-out: Percent Control
Experimental: as §1

[6] = biological target: ABL1(T315I)-phosphorylated (Homo sapiens, UniProt P00519, T315I); settings: read-out: Percent Control
Experimental: as §1

ERBB2 = ERBB2 (Homo sapiens, UniProt P04626); settings: read-out: Percent Control
Experimental: as §1

MARK4 = MARK4 (Homo sapiens, UniProt Q96L34); settings: read-out: Percent Control
Experimental: as §1

PDGFRA = PDGFRA (Homo sapiens, UniProt P16234); settings: read-out: Percent Control
Experimental: as §1

PIK3CA(M1043I) = PIK3CA(M1043I) (Homo sapiens, UniProt P42336, M1043I); settings: read-out: Percent Control
Experimental: as §1

Sequence of CAMK2B (Q13554 whole entry): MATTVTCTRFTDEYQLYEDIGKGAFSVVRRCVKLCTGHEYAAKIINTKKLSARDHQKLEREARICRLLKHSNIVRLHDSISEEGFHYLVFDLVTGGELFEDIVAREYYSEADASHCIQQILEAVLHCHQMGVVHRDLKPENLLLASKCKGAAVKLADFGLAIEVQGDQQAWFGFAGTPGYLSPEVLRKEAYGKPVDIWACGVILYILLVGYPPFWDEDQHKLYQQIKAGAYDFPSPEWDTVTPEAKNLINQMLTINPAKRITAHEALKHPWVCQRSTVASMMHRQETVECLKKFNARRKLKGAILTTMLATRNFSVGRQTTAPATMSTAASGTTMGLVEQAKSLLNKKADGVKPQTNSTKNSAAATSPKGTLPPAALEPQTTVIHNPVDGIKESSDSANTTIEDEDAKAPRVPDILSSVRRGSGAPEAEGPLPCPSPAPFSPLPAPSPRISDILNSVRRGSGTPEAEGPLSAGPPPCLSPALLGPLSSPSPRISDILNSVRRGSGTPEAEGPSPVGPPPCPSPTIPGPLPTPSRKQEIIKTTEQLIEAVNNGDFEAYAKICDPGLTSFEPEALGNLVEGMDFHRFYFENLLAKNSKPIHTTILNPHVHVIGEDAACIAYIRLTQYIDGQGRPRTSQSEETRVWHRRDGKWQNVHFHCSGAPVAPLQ

O=C1CCC(N2C(=O)c3cccc(NCCCCCCCCNC(=O)N4CC[C@H](NC5=Nc6cc(F)ccc6N(CC(F)F)c6ccc(Cl)cc65)C4)c3C2=O)C(=O)N1 (stereo partly drawn) [BJG-05-039, (3S)-3-((2-Chloro-5-(2,2-difluoroethyl)-8-fluoro-5H-dibenzo[b,e][1,4]diazepin-11-yl)amino)-N-(8-((2-(2,6-dioxopiperidin-3-yl)-1,3-dioxoisoindolin-4-yl)amino)octyl)pyrrolidine-1-carboxamide]
remaining binding at 10 µM (DAPK2): 41%
remaining binding at 10 µM (NDR2): 45%
remaining binding at 10 µM (CAMK2B): 46%
remaining binding at 10 µM (TTK): 55%
remaining binding at 10 µM (PKAC-beta): 62%
remaining binding at 10 µM (MRCKB): 67%
remaining binding at 10 µM (TRKB): 67%
remaining binding at 10 µM (FGFR4): 68%
remaining binding at 10 µM (ACVRL1): 71%
remaining binding at 10 µM (LIMK2): 72%
remaining binding at 10 µM (YANK3): 72%
remaining binding at 10 µM (TGFBR2): 75%
remaining binding at 10 µM [1]: 77%
remaining binding at 10 µM (CSNK1G2): 78%
remaining binding at 10 µM (LRRK2): 80%
remaining binding at 10 µM (ULK2): 82%
remaining binding at 10 µM (ERK2): 85%
remaining binding at 10 µM [2]: 86%
remaining binding at 10 µM (SRPK1): 87%
remaining binding at 10 µM (CDK5): 90%
remaining binding at 10 µM (EPHA7): 90%
remaining binding at 10 µM (INSR): 93%
remaining binding at 10 µM (YSK4): 93%
remaining binding at 10 µM (ABL2): 94%
remaining binding at 10 µM (PIK3CA(H1047Y)): 94%
remaining binding at 10 µM [3]: 94%
Percent Control (FLT3(ITD, D835V)): 95
remaining binding at 10 µM [4]: 95%
remaining binding at 10 µM (SRMS): 97%
remaining binding at 10 µM [5]: 98%
remaining binding at 10 µM (EIF2AK1): 98%
remaining binding at 10 µM (LOK): 98%
remaining binding at 10 µM [6]: 100%
remaining binding at 10 µM (ERBB2): 100%
remaining binding at 10 µM (MARK4): 100%
remaining binding at 10 µM (PDGFRA): 100%
remaining binding at 10 µM (PIK3CA(M1043I)): 100%

From patent US20250312462A1, “PAK1 DEGRADERS AND METHODS OF USE THEREOF” (INSTITUTE FOR CANCER RESEARCH D/B/A THE RESEARCH INSTITUTE …, priority 2022, published 2025)
